Like-named read-outs stand apart in the source and are kept apart here.
How the values were obtained:
[1] = tested on: N87 (stomach) cancer cells; experiment: SRB cytotoxicity assay, N87; type: cell-based; conditions: Homo sapiens, 72 h, maximum tested concentration 50 µM, read-out: IC50 ± SEM, N87
Experimental: (§1) MCF7 (breast) or N87 (stomach) cancer cells were grown in Roswell Park Memorial Institute-1640 (RPMI-1640) medium (Thermo Fisher Scientific, Inc; Waltham, MA, USA), supplemented with 10% heat inactivated fetal bovine serum (FBS), 50 units/mL of penicillin and […] of streptomycin and maintained at 37°C in a humidified atmosphere containing 5% CO2. The cells were maintained as “monolayer culture” by serial subculturing.
(§2) Cytotoxicity was determined using Sulforhodamine B (SRB) method as previously described by Skehan et al. ([66]). Exponentially growing MCF7 and N87 cells were collected using 0.25% Trypsin-EDTA and were then seeded in 96-well plates at a density of 1000-2000 cells/well in 10% FBS and penicillin/streptomycin supplemented RPMI-1640 medium. After 24 h, cells were treated with different concentrations of test compounds and incubated for 72 h at 37°C in a humidified atmosphere containing 5% CO2. Next, the cells were fixed by adding trichloroacetic acid (TCA, 10% final conc. in wells) directly to the wells and incubated for 1 h at 4°C, then cells were washed with distilled water 5 times to remove excess TCA, media, serum proteins, and metabolites, followed by air drying. After that, the fixed cells were stained with 0.4% SRB dissolved in 1% acetic acid for 10 min at room temperature, and excess stain was removed by quickly rinsing with 1% acetic acid. The residual acetic acid was removed completely by air drying the plates for 24 h, and the dye was solubilized with Tris buffer (pH= 7.4, 10 mM) for 5 min on a shaker at 1600 rpm. The optical density (OD) of each well was measured spectrophotometrically at 564 nm with an ELISA microplate reader (ChroMate-4300, FL, USA). The IC50 values (concentration of drug resulting in 50% reduction in cell survival) were calculated according to the equation for Boltzman sigmoidal concentration–response curve using the nonlinear regression fitting models (Graph Pad, Prism Version 5).

[2] = tested on: MCF7 (breast) cancer cells; experiment: SRB cytotoxicity assay, MCF7; type: cell-based, human; conditions: maximum tested concentration 50 µM, read-out: IC50 ± SEM, MCF7
Experimental: as §1, §2

HCT116 cell line = experiment: MTT anti-proliferative assay, HCT116; type: cell-based, human; conditions: maximum tested concentration 50 µM, read-out: IC50 ± SEM, HCT116
Experimental: The test compounds were evaluated for anti-proliferative activity using the MTT viability assay against HCT116 cell line. Cells were seeded in triplicate in 96-well plates at a density of 10x 10^3 cells/mL in a total volume of 200 µL per well. 0.1% of DMSO was used as a vehicle control. Each well was treated with 2 µL test compounds, which had been pre-prepared as stock solutions in […] to furnish the concentration range of study, 0.1 µM to 50 µM, and re-incubated for a further 72 h at 37°C in a humidified atmosphere containing 5% CO2. The culture medium was then removed, and the cells were washed with 100 µL PBS and 100 µL MTT was added, to reach a final concentration of 1 mg/mL MTT. Cells were incubated for 3 h in darkness at 37°C. After that, MTT solution was removed and MTT was solubilized by adding […] DMSO. The cells were maintained at room temperature in darkness for 20 min to ensure thorough color diffusion before reading the absorbance using a microplate reader at 570 nm. All experiments were conducted in triplicates. Results were expressed as percentage viability relative to vehicle control (100%). Dose response curves were plotted and IC50 values (concentration of drug resulting in 50% reduction in cell survival) were obtained using the commercial software package Prism (GraphPad Software, Inc., La Jolla, CA, USA).

HL60 leukemia cell line = experiment: CellTiter-Blue cell viability assay, HL60; type: cell-based; conditions: Homo sapiens, HL-60; CellTiter-Blue, 48 h; maximum tested concentration 20 µM; read-out: IC50 ± SEM, HL60
Experimental: (§3) HL60, K562, MV4-11 and NB4 were purchased from CLS Cell Line Service GmbH (Eppelheim, Germany). All cell lines were cultured in RPMI-1640 medium supplemented with 10% fetal bovine serum (FBS) (Thermo Fisher Scientific) and 0.1% ciprofloxacin (2.5mg/ml; Cipla Limited; Mumbai, India), and were maintained at 37°C in the presence of 21% O2 and 5% CO2.
(§4) Cell viability was determined using the CellTiter®-Blue Cell Viability Assay kit (Promega, Madison, WI, USA). Approximately 10^4 cells were counted and plated in a 96-well plate in the presence of test compounds ranging from 0.01 to 10 or 20 µM in triplicate and were incubated for 48 h at 37°C in a humidified incubator. After the incubation period was complete, 20 µL of CellTiter®-Blue Cell Viability Assay reagent was added to each well and incubated for additional 2 h for the development of florescence. Florescence was measured at Ex/Em 540/590 on SpectraMax® i3 Multi-Mode microplate reader (Molecular Devices, LLC; San Jose, CA, USA) and plotted against drug concentration to determine the IC50 of the test compounds. The IC50 was obtained by non-linear regression model using GraphPad Prism 6.07 (GraphPad Software, Inc, USA).

K562 leukemia cell line = experiment: CellTiter-Blue cell viability assay, K562; type: cell-based; conditions: Homo sapiens, CellTiter-Blue, 48 h, maximum tested concentration 20 µM, read-out: IC50 ± SEM, K562
Experimental: as §3, §4

[3] = tested on: MV4-11 leukemia cell line; experiment: CellTiter-Blue cell viability assay, MV4-11; type: cell-based; conditions: Homo sapiens, CellTiter-Blue, 48 h, maximum tested concentration 20 µM, read-out: IC50 ± SEM, MV4-11
Experimental: as §3, §4

[4] = tested on: HT-29 colon cancer cell line; design: method as in PMID 29617135; conditions: read-out: GI50, HT29 (Colon Cancer); cited from earlier work

| SMILES | melting point | IC50 (HCT116 cell line; 72 h) | IC50 (HCT116 cell line; Homo sapiens, HCT-116, 72 h) | IC50 (HL60 leukemia cell line) | IC50 (K562 leukemia cell line) | IC50 [3] | IC50 [1] | IC50 ([2]; Homo sapiens, MCF7, 72 h) | IC50 ([2]; 72 h) | GI50 [4] |
| --- | --- | --- | --- | --- | --- | --- | --- | --- | --- | --- |
| CC(=O)Nc1ccc(CC(=O)NCc2ccccc2)cc1 [Compound 4a, 2-(4-acetamidophenyl)-N-benzylacetamide] | – | 18.8 ± 3.06 µM | 18.8 µM | – | – | – | > 50 µM | 29.3 µM | 29.3 ± 4.64 µM | – |
| Nc1ccc(CC(=O)NCc2ccccc2)cc1 [Compound 3a, 2-(4-aminophenyl)-N-benzylacetamide] | 140 to 141 °C | > 50 µM | > 100 µM | – | – | – | > 50 µM | > 100 µM | > 50 µM | – |
| O=C(Cc1ccc(-c2ccccc2)cc1)NCc1cccc(F)c1 [KX1-136] | – | – | – | – | – | – | – | – | – | 0.877 µM |

Continued, in another order:

| melting point | IC50 (HCT116 cell line; 72 h) | IC50 (HCT116 cell line; Homo sapiens, HCT-116, 72 h) | IC50 (HL60 leukemia cell line) | IC50 (K562 leukemia cell line) | IC50 [3] | SMILES | IC50 [1] | IC50 ([2]; Homo sapiens, MCF7, 72 h) | IC50 ([2]; 72 h) | GI50 [4] |
| --- | --- | --- | --- | --- | --- | --- | --- | --- | --- | --- |
| 190 °C | – | – | – | – | – | O=C(Cc1ccc(NC(=O)c2ccc(Cl)cc2)cc1)NCc1ccccc1 [Compound 4f, N-(4-(2-(benzylamino)-2-oxoethyl)phenyl)-4-chlorobenzamide] | 48.3 ± 7.44 µM | > 50 µM | – | – |
| 214 °C | – | 19 ± 4.18 µM | 2.96 ± 0.25 µM | 2.68 ± 0.03 µM | 3.2 ± 0.09 µM | O=C(Cc1ccc(NC(=O)c2cccc(F)c2)cc1)NCc1ccccc1 [Compound 4d, N-(4-(2-(benzylamino)-2-oxoethyl)phenyl)-3-fluorobenzamide] | > 50 µM | 6.55 ± 1.34 µM | – | – |
| 212 °C | – | 19.7 ± 4.79 µM | 5.27 ± 1.94 µM | > 20 µM | 11.9 ± 0.96 µM | O=C(Cc1ccc(NC(=O)c2ccccc2)cc1)NCc1ccccc1 [Compound 4c, N-(4-(2-(benzylamino)-2-oxoethyl)phenyl)benzamide] | > 50 µM | 5.11 ± 3.03 µM | – | – |
| 140 °C | – | > 50 µM | > 20 µM | > 20 µM | > 20 µM | Cc1ccc(S(=O)(=O)Nc2ccc(CC(=O)NCc3ccccc3)cc2)cc1 [Compound 4g, N-benzyl-2-(4-((4-methylphenyl)sulfonamido)phenyl)acetamide] | – | > 50 µM | – | – |
| 210 °C | – | > 50 µM | > 20 µM | > 20 µM | > 20 µM | CCC(=O)Nc1ccc(CC(=O)NCc2ccccc2)cc1 [Compound 4b, N-(4-(2-(benzylamino)-2-oxoethyl)phenyl)propionamide] | 32 ± 6.34 µM | 27.7 ± 9.38 µM | – | – |
